Test results reported in the supplement of paper PMC13380429.

Columns and labels:
Details in all cases: 72 h
[1] = tested on: Caco-2; experiment: cell viability relative to DMSO; higher = less toxic
[2] = tested on: Calu-3; experiment: as above
[3] = tested on: HepG2; experiment: as above
[4] = tested on: U2OS; experiment: as above
[5] = tested on: Vero E6; experiment: as above
[6] = tested on: Calu-3; experiment: relative viability EC50 (midpoint between 100% and the lowest measured viability); higher = less toxic
[7] = tested on: HepG2; experiment: as above
[8] = tested on: U2OS; experiment: as above
[9] = tested on: Vero E6; experiment: as above
[10] = tested on: Caco-2; experiment: drug sensitivity score (DSS) for viability; higher = more toxic; extreme values may be limits of the assay
[11] = tested on: Calu-3; experiment: as above
[12] = tested on: HepG2; experiment: as above
[13] = tested on: U2OS; experiment: as above
[14] = tested on: Vero E6; experiment: as above
[15] = tested on: Caco-2; experiment: relative viability EC50 (midpoint between 100% and the lowest measured viability); higher = less toxic

| SMILES | cell viability ([1]; 1 nM) [%] | cell viability ([1]; 10 nM) [%] | cell viability ([1]; 100 nM) [%] | cell viability ([1]; 1000 nM) [%] | cell viability ([1]; 10000 nM) [%] | cell viability ([2]; 1 nM) [%] | cell viability ([2]; 10 nM) [%] | cell viability ([2]; 100 nM) [%] | cell viability ([2]; 1000 nM) [%] | cell viability ([2]; 10000 nM) [%] | cell viability ([3]; 1 nM) [%] | cell viability ([3]; 10 nM) [%] | cell viability ([3]; 100 nM) [%] | cell viability ([3]; 1000 nM) [%] | cell viability ([3]; 10000 nM) [%] | cell viability ([4]; 1 nM) [%] | cell viability ([4]; 10 nM) [%] | cell viability ([4]; 100 nM) [%] | cell viability ([4]; 1000 nM) [%] | cell viability ([4]; 10000 nM) [%] | cell viability ([5]; 1 nM) [%] | cell viability ([5]; 10 nM) [%] | cell viability ([5]; 100 nM) [%] | cell viability ([5]; 1000 nM) [%] | cell viability ([5]; 10000 nM) [%] | relative viability EC50 [6] [µM] | relative viability EC50 [7] [µM] | relative viability EC50 [8] [µM] | relative viability EC50 [9] [µM] | drug sensitivity score [10] | drug sensitivity score [11] | drug sensitivity score [12] | drug sensitivity score [13] | drug sensitivity score [14] | relative viability EC50 [15] [µM] |
| --- | --- | --- | --- | --- | --- | --- | --- | --- | --- | --- | --- | --- | --- | --- | --- | --- | --- | --- | --- | --- | --- | --- | --- | --- | --- | --- | --- | --- | --- | --- | --- | --- | --- | --- | --- |
| CN(C)CC[C@@](O)(c1ccccc1)c1ccccc1Cl [clofedanol] | 93.4 | 89.6 | 103 | 95.8 | 72.5 | 101 | 106 | 102 | 101 | 96.4 | 93.7 | 97.1 | 101 | 94.2 | 113 | 99.2 | 98.1 | 92.7 | 102 | 100 | 104 | 96.5 | 99.5 | 88.9 | 101 | > 10 | > 10 | > 10 | > 10 | 1.8 | 0 | 0 | 0 | 0 |  |
| N[C@H](Cc1c[nH]cn1)C(=O)O [copper-histidine] | 106 | 102 | 107 | 98.8 | 107 | 105 | 94.4 | 84.8 | 82.1 | 99.5 | 110 | 98.7 | 103 | 104 | 89.3 | 101 | 96.1 | 95.8 | 97.3 | 97.3 |  |  |  |  |  | > 10 | > 10 | > 10 |  | 0 | 0.1 | 0 | 0 |  | > 10 |
| Nc1nc(=O)[nH]cc1F [flucytosine] | 97.6 | 94 | 100 | 96.5 | 92.9 | 87.6 | 102 | 99.9 | 91.1 | 111 | 101 | 110 | 97.6 | 109 | 110 | 98.6 | 99.2 | 102 | 97.9 | 104 |  |  |  |  |  | > 10 | > 10 | > 10 |  | 0 | 0 | 0 | 0 |  | > 10 |
| Oc1c(I)cc(I)c2cccnc12 [iodoquinol] | 107 | 94.3 | 97.1 | 96.3 | 63.1 | 106 | 98.6 | 99.7 | 93.4 | 98.4 | 109 | 99 | 93.7 | 99.9 | 36.1 | 104 | 100 | 102 | 98.5 | 85.2 | 100 | 106 | 100 | 99.8 | 68.1 | > 10 | 3.15 | > 10 |  | 2.4 | 0 | 3.5 | 0.4 | 1.5 |  |
| O=C1[C@@H]2[C@H]3CC[C@H](C3)[C@@H]2C(=O)N1C[C@@H]1CCCC[C@H]1CN1CCN(c2nsc3ccccc23)CC1 [lurasidone] | 94.5 | 100 | 99.6 | 104 | 64.5 | 99.8 | 97.8 | 105 | 94.7 | 105 | 106 | 106 | 99.5 | 96.9 | 89.2 | 104 | 107 | 95.9 | 102 | 88.4 | 104 | 102 | 103 | 99.6 | 97.2 | > 10 | > 10 | > 10 | > 10 | 1.4 | 0 | 0.1 | 0 | 0 |  |
| CC#C[C@]1(O)CC[C@H]2[C@@H]3CCC4=CC(=O)CCC4=C3[C@@H](c3ccc(N(C)C)cc3)C[C@@]21C [mifepristone] | 88.8 | 93.4 | 94.1 | 100 | 72 | 96.2 | 103 | 88.7 | 96.3 | 109 | 93.6 | 92.6 | 102 | 90.3 | 99 | 100 | 100 | 100 | 104 | 91.8 | 98 | 101 | 98.4 | 96.8 | 97.6 | > 10 | > 10 | > 10 | > 10 | 1.2 | 0 | 0 | 0 | 0 |  |
| O=C1CN(/N=C/c2ccc([N+](=O)[O-])o2)C(=O)N1 [nitrofurantoin] | 101 | 101 | 95.8 | 89.9 | 103 | 106 | 111 | 97.6 | 94.3 | 102 | 98.4 | 111 | 113 | 109 | 60 | 104 | 97.9 | 101 | 101 | 103 | 92.4 | 95.1 | 98.4 | 96.7 | 97.4 | > 10 |  | > 10 | > 10 | 0 | 0 | 1.5 | 0 | 0 | > 10 |
| CCCCCCCCCCCCOCCOCCOCCOCCOCCOCCOCCOCCOCCO [polidocanol] | 85.7 | 105 | 99.9 | 108 | 69.7 | 106 | 105 | 99.6 | 106 | 91.5 | 105 | 98.5 | 124 | 111 | 28.9 | 91.5 | 103 | 95.4 | 101 | 90.4 | 99.5 | 89.7 | 104 | 108 | 116 | > 10 | 3.8 | > 10 | > 10 | 1 | 0 | 3.3 | 0 | 0 |  |
| CCc1nc(N)nc(N)c1-c1ccc(Cl)cc1 [pyrimethamine] |  |  |  |  |  | 101 | 111 | 101 | 99 | 107 | 108 | 91.5 | 102 | 93.2 | 77.9 | 100 | 108 | 99.8 | 102 | 96.8 | 96.3 | 93 | 103 | 99.9 | 60.7 | > 10 | > 10 | > 10 |  |  | 0 | 1.6 | 0 | 2 |  |
| Cc1ncc(CSSCc2cnc(C)c(O)c2CO)c(CO)c1O [pyritinol] | 99.8 | 87.4 | 94.5 | 100 | 92.7 | 96.1 | 105 | 94.4 | 99.2 | 105 | 90 | 97.7 | 108 | 95.8 | 97.8 | 103 | 100 | 96.6 | 101 | 98.3 |  |  |  |  |  | > 10 | > 10 | > 10 |  | 0 | 0 | 0 | 0 |  | > 10 |
| Clc1ccc(CSC(Cn2ccnc2)c2ccc(Cl)cc2Cl)cc1 (configuration not stated) [sulconazole] | 99.5 | 92.7 | 97.3 | 94 | 63.5 | 107 | 95.5 | 102 | 110 | 96.7 | 86.9 | 87.4 | 102 | 99.1 | 98.1 | 97.5 | 101 | 96 | 101 | 93.7 | 106 | 104 | 104 | 95.4 | 94.6 | > 10 | > 10 | > 10 | > 10 | 2.7 | 0 | 0 | 0 | 0 |  |
| CS(=O)(=O)c1ccc([C@@H](O)[C@@H](CO)NC(=O)C(Cl)Cl)cc1 [thiamphenicol] | 99.7 | 89.8 | 91.7 | 93.4 | 94.4 | 106 | 94.5 | 102 | 89.7 | 97.8 | 101 | 110 | 93.4 | 101 | 67.3 | 99.5 | 97.5 | 105 | 96.6 | 99 | 95.8 | 99.3 | 92.3 | 96.8 | 98.1 | > 10 |  | > 10 | > 10 | 0 | 0 | 1.4 | 0 | 0 | > 10 |
